Assay results taken from patent publication US20230015823A1, “METHODS OF ADMINISTERING VOXELOTOR” (Global Blood Therapeutics, Inc., priority 2019, published 2023).

Target: CYP3A4 (Homo sapiens, UniProt P08684)
Test: Effect of voxelotor on PK of CYP3A4 probe substrate midazolam in healthy subjects
Details: healthy subjects
Experimental: During Period 1, subjects received a single dose of caffeine 100 mg, warfarin sodium 10 mg+vitamin K 10 mg, omeprazole 20 mg, and midazolam hydrochloride 2 mg on Day 1. During Period 2, subjects received voxelotor 900 mg QD on Days 1 and 2 followed by 600 mg QD on Day 3, a single dose of caffeine 100 mg, warfarin sodium 10 mg+vitamin K 10 mg, omeprazole 20 mg, and midazolam hydrochloride 2 mg on Day 4, and voxelotor 600 mg QD on Days 4 through 7.
Whole blood and plasma concentrations of voxelotor and plasma concentrations of caffeine, paraxanthine, S-warfarin, omeprazole, 5-hydroxyomeprazole, midazolam, and 1-hydroxymidazolam were determined using validated assays.

Sequence of CYP3A4 (P08684 whole entry): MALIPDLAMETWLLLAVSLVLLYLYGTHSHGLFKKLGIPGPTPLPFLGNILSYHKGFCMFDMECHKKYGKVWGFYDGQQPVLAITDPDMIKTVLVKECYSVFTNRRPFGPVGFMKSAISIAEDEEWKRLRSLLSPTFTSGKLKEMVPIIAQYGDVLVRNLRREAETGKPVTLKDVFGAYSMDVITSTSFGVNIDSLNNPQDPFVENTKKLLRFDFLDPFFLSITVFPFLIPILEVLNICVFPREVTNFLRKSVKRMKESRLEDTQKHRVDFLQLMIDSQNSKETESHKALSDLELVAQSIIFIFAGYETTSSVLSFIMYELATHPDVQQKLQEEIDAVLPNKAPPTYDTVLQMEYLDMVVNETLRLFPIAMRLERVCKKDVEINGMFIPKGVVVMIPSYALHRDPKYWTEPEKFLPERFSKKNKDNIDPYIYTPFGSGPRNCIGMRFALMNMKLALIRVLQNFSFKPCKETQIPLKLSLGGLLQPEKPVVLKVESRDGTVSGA

## OCc1ncc2n1-c1ccc(Cl)cc1C(c1ccccc1F)=NC2 [1′-hydroxy-midazolam]
Midazolam metabolite, voxelotor 900/600 mg QD
  increase of overall exposure of metabolite in the presence of voxelotor: 75%

## Cc1ncc2n1-c1ccc(Cl)cc1C(c1ccccc1F)=NC2 [midazolam]
CYP3A4 substrate midazolam
  observed exposure increase with voxelotor: 1.6 fold
Midazolam hydrochloride 2 mg single dose, voxelotor 900/600 mg QD
  increase of overall exposure in the presence of voxelotor: 63%
